What was measured:
HBV DNA = experiment: Cell culture experiments with N-nonyl-DNJ: total HBV DNA and immune precipitated DNA (IPDNA); assay type: cell-based
Description: (§1) There are two measures of drug efficacy: reduction in total HBV DNA (measured by quantitative PCR), and reduction in HBV DNA from capsids with intact surface glycoproteins, which is the active form of the virus (measured by an ELISA-like immune precipitation assay followed by quantitative PCR).

[1] = tested on: woodchuck hepatitis virus (WHV); experiment: Woodchuck model, N-nonyl-DNJ monotherapy, BID oral dosing, total HBV DNA and IPDNA; assay type: in vivo
Protocol: Therefore, five groups of four animals each (all groups had both sexes, all but the control had two of each sex) were assigned to 0, 12.5, 25, 50, and 100 mg/kg/day with BID oral dosing. These were lab-reared wild animals. All animals were infected with woodchuck hepatitis virus (WHV) as neonates, and had been tested positive on serological tests for WHV surface antigen. Blood samples were drawn one week prior to dosing (−1 week), immediately before dosing (0 weeks), weekly during dosing (1, 2, 3, and 4 weeks), and after the end of dosing (5, 6, 8, and 10 weeks).
as §1
Before models are fitted to the data, a log transform was applied because: 1) the variation in IPDNA increases with increasing IPDNA values; the log transformation gives values with a nearly constant variation, and 2) it is expected that drug effects will appear as a constant multiplier of the IPDNA level. Because there are zero values of IPDNA, a small value (about ½ of the smallest non-zero value) was added to all values before the log transform.
Two approaches were used to model the changes in slope to week with dose of N-nonyl-DNJ: a linear modeling approach and a nonlinear model. Both approaches assume that the (linear) rate of change of the Log(IPDNA) measure over the dosing period is the “right” measure to reflect the effect of the drug on the virus. Both approaches are fit in stages, and the first stage is common to both approaches. First, a simple straight line regression model is fit using weeks 0-4 to predict log(IPDNA+10) separately for each animal by run combination. In the second stage, the response variable is the slope fitted in the first stage.
For the linear approach, a model is fit with slope to week as the response where run is considered a block, dose has a significant effect (almost all of this effect is due to a slope to dose), and the relevant error for testing the effect of dose is the variation among animals treated alike (after the adjustment for the runs as blocks). This is similar to using the calibration data within each run to first adjust each run's data to a common virus DNA concentration; the difference is that here the data from the woodchucks are used for the run adjustment rather than only the calibration data.
For the nonlinear approach, a four parameter logistic model is fit with the slope to week as the response and the dose as the predictor. Again, run is considered a block, but because no run has all weeks, it is not possible to fully reflect the blocking in the nonlinear approach. […] The average maximum slope observed was 2.71 additional Log(IPDNA μg/mL)/week, or an increase of about 150%/week, the average minimum slope observed with N-nonyl-DNJ is 0.31 fewer Log(IPDNA μg/mL)/week), or about a decrease of about 25%/week. The slopes, the fitted model, the parameter estimates from the-model, and the approximate standard errors for these parameters are all shown in FIG. 3. […] Whether in woodchucks or humans, the effective dose of both the N-alkyl-DNJ and nucleoside or nucleotide antiviral agent administered in combination therewith can be administered in two equal daily subdoses (i.e., B.I.D.).

[2] = in vivo; cited from earlier work
Hepatitis B virus = details: literature; cited from earlier work
[3] = HIV infected patients; cited from earlier work

Compound: CCCCCCCCCN1C[C@H](O)[C@@H](O)[C@H](O)[C@H]1CO [N-nonyl-DNJ, N-(n-nonyl-)-1,5-dideoxy-1,5-imino-D-glucitol]
- effect on immune precipitated DNA (IPDNA) (HBV DNA): marked effect
- effect on total HBV DNA (HBV DNA): little or no effect
- average maximum slope observed ([1]; additional Log(IPDNA)/week, i.e. an increase, low dose end of the model): 2.71 Log(IPDNA μg/mL)/week
- average minimum slope observed ([1]; fewer Log(IPDNA)/week, i.e. a decrease): 0.31 Log(IPDNA μg/mL)/week
- EC50 ([1]; four parameter logistic model, slope of Log(IPDNA+10) to week versus dose): 7.88 mg/kg/BID dose
- decrease of IPDNA at the average minimum slope ([1]; in vivo): about 25 %/week
- increase of IPDNA at the average maximum slope ([1]; low dose end of the model): about 150 %/week
- effect on total HBV DNA measurements ([1]; woodchuck, all dose levels, quantitative PCR): no effect
- slope of IPDNA over weeks 0-4 ([1]; woodchuck, change in slope statistically significant (p<0.005)): generally increasing for low dose animals and decreasing for high dose animals
- approximate effective monotherapy dose ([1]; woodchucks): about 16 mg/kg/day

Compound: O=c1[nH]c(=O)n([C@@H]2O[C@H](CO)[C@@H](O)[C@@H]2F)cc1I [fialuridine]
- toxicity [2]: drug-related liver failure leading to death in some patients

Compound: CCCCN1C[C@H](O)[C@@H](O)[C@H](O)[C@H]1CO [n-butyl-DNJ, N-butyl-1-5-dideoxy-1,5-imino-D-glucitol]
- usefulness against Hepatitis B infection (Hepatitis B virus): effective
- tolerability [3]: well tolerated

Compound: Cc1cn([C@H]2C[C@H](N=[N+]=[N-])[C@@H](CO)O2)c(=O)[nH]c1=O [zidovudine, 3′-azido-3′-deoxythymidine, reference compound]
- usefulness against Hepatitis B infection (Hepatitis B virus): appears to have little use against the same virus
